Test results taken from patent publication US9676758B2, “1-heteroaryl-indoline-4-carboxamides as modulators of GPR52 useful for the treatment or prevention of disorders related thereto” (Arena Pharmaceuticals, Inc., priority 2015, dated 2017).

Experiments:
[1] = test system: male Sprague-Dawley rats; assay: Catalepsy (vertical grid) in rats; type: in vivo, rat; details: Compound 13 5-100 mg/kg P.O., haloperidol 0.1, 0.3, or 1 mg/kg S.C., 45 minutes post-dose
Description: Catalepsy is used as a model for detecting extrapyramidal side effects of antipsychotic drugs. […] The rats were removed from home cages 45 minutes later and placed on a vertical stainless steel grid, and the latency to move both forepaws from their starting position was measured for a maximum of 30 seconds. The test was repeated three times consecutively.
Catalepsy is expressed as the average latency to move both forepaws over the three trials. Latency increased in the rats administered haloperidol (see FIG. 27B), but was unchanged in rats administered Compound 13 (see FIG. 27A).

[2] = test system: male Sprague Dawley rats; assay: Plasma prolactin levels in rats (ELISA); type: in vivo, rat
Description: Another unwanted side effect of certain antipsychotics is hyperprolactinemia. To examine prolactin levels following the administration of a GPR52 agonist, male Sprague Dawley rats (Harlan Laboratories, San Diego, Calif.) were single-housed, handled, and moved to a private housing room one week prior to testing. Rats were individually handled and sham dosed P.O. for four days prior to testing. For an assessment of haloperidol (0.1 and 1 mg/kg P.O.) and Compound 13 (1, 10, and 100 mg/kg P.O.) on basal prolactin release, rats were dosed with acidic 20% HP-β-cyclodextrin (HBCD) or compound at 3 mL/kg P.O. in their housing room 60 minutes prior to harvest. For interaction studies, rats were dosed with 20% HBCD or Compound 13 (10 mg/kg P.O.) 90 minutes prior to harvest, and additionally with 20% HBCD vehicle or haloperidol (0.3 and 1 mg/kg P.O.) 60 minutes prior to harvest. Rats were individually taken to the harvest room, and trunk blood was collected into 4 mL EDTA tubes following live decapitation. Samples were stored on wet ice until collection was complete, then spun in a cooling centrifuge at 2400 rpm for 20 minutes. Plasma was collected and frozen for subsequent analysis using a Rat Prolactin ELISA kit (ALPCO Diagnostics: Cat#55-PRLRT-E01).
Briefly, frozen plasma was thawed on ice and mixed prior to initiation of the ELISA. Twenty-five microliters of sample plasma along with serially diluted standards (lyophilized purified rat prolactin diluted with rat prolactin calibrator/sample diluent), and calibrator/sample diluent used as a blank were placed in a 96-well plate provided with the ELISA kit. Samples, blank, and standards were measured in duplicate. […] Fifty microliters of stop solution (2M hydrochloric acid) was added to the wells prior to reading on a 96-well plate reader (SpectraMax® 340PC; Molecular Devices, Sunnyvale, Calif.) at […]. The quantity of prolactin in each sample was calculated using a standard curve.

[3] = test system: male C57/BL6 mice; assay: Mouse basal locomotor activity; type: in vivo; details: po
Description: To measure basal locomotor activity, male C57/BL6 mice (8-16 weeks) (Jackson Laboratories, Sacramento, Calif.) were transferred in home cages to the testing room approximately 60 minutes prior to testing. Approximately 15 minutes after arrival in the testing room, a dark cycle commenced, with lights turning off and infrared lights turning on for experimenter visibility. Thirty minutes after the lights were turned off, animals were individually weighed and administered either vehicle (20% hydroxypropyl-β-cyclodextrin) Compound 13 (1, 2, 5, 10, or 20 mg/kg P.O.), or another GPR52 agonist (10 mg/kg P.O.) and returned to home cages. Fifteen minutes later, mice were placed into locomotor cages and activity was recorded for 60 minutes.

O=C(NCCO)c1cccc2c1CCN2c1cc(Cc2cccc(C(F)(F)F)c2)ccn1 [Compound 13, N-(2-Hydroxyethyl)-1-(4-(3-(trifluoromethyl)benzyl)pyridin-2-yl)indoline-4-carboxamide]
catalepsy: average latency to move both forepaws [1]: unchanged
haloperidol-induced increase in prolactin levels ([2]; Compound 13 10 mg/kg P.O., at a low dose of haloperidol, FIG. 28B): reversed
prolactin levels ([2]; basal prolactin release, haloperidol 0.1 and 1 mg/kg P.O., Compound 13 1, 10, and 100 mg/kg P.O., FIG. 28A): decreased
inhibition at 10 mg/kg ([3]; 10 mg/kg P.O.): 70%
ED50 ([3]; 1 h, P.O., activity recorded for 60 minutes, read-out: ED50 (% Inhibition in Mouse Basal Locomotor Activity)): 2.7 mg/kg
